From US20220257710A1, “ANTI-INFECTION EFFECTS OF HNRNPA2B1 AND USE THEREOF” (INSTITUTE OF BASIC MEDICAL SCIENCES, CHINESE ACADEMY OF …, priority 2019, published 2022)

Tested on: HSV-1 DNA
Assay: Immunoprecipitation of nuclear protein with anti-hnRNPA2B1 antibody and PCR detection of HSV-1 DNA
Type: binding, HSV-1 (strain F)
Conditions: mouse primary peritoneal macrophages, 2 hours after HSV-1 infection, PCR
Description: Obtaining the primary peritoneal macrophages of mice: C57BL/6 mice (6-8 weeks old, female, Shanghai Bikai Experimental Animal Co., Ltd.) were intraperitoneally injected with 2 ml of 3% mercaptoacetate (Sigma Aldrich) solution once. Three days later, the mice were sacrificed by cervical dislocation, and the abdominal cavity was washed with serum-free medium, sucked out and centrifuged to obtain cells.
The primary peritoneal macrophage cells were cultured in DMEM medium. After HSV-1 (strain F, ATCC) infection for 2 hours, nuclear protein was isolated and immunoprecipitated by anti-hnRNPA2B1 antibody (Santa Cruz) or control antibody (IgG, Santa Cruz). HSV-1 DNA was detected by PCR.

Substance: hnRNPA2B1: heterogeneous nuclear ribonucleoprotein A2B1; endogenous nuclear protein of mouse macrophages precipitated by anti-hnRNPA2B1 antibody
- binding of hnRNPA2B1 to HSV-1 DNA: bound
